Experimental data published in ChEMBL document CHEMBL1201862, “PubChem BioAssay data set” (2004).
Active and inactive are the calls of the source.

Key:
[1] = A cytotoxicity screen of small molecule inhibitors of the PhoP region in Salmonella typhi identified in the primary screen. [Related pubchem assays: 1850, 1864, 1985 ]; type: functional
[2] = biological target: DNA dC->dU-editing enzyme APOBEC-3G (Homo sapiens, UniProt Q9HC16); test: Dose Response confirmation of small molecule APOBEC3G DNA Deaminase Inhibitors via a fluorescence-based single-stranded DNA deaminase assay. [Related pubchem assays (depositor defined):AID493012, AID493028]; type: functional
DNA dC->dU-editing enzyme APOBEC-3G, sequence (Q9HC16 whole entry): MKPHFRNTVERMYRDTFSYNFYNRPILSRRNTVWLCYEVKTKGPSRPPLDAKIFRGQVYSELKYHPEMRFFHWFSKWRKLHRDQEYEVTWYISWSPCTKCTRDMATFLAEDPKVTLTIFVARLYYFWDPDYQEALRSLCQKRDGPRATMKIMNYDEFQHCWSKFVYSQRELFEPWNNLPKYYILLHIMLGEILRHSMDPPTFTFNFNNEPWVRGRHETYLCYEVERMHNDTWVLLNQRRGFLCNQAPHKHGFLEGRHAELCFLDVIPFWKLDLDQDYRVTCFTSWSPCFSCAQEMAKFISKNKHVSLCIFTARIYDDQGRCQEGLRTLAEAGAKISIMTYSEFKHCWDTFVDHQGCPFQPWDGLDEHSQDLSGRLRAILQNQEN

[3] = biological target: DNA dC->dU-editing enzyme APOBEC-3A (Homo sapiens, UniProt P31941); test: APOBEC3A DNA deaminase inhibitors, dose response, biochemical (AID 504722); type: functional
DNA dC->dU-editing enzyme APOBEC-3A, sequence (P31941 whole entry): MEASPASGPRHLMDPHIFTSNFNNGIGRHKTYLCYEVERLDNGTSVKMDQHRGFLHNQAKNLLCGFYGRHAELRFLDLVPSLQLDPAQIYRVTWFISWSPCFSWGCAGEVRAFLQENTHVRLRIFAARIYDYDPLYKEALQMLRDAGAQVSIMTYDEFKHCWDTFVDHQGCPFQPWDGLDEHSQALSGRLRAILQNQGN

[4] = biological target: Neuropeptide Y receptor type 1 (Homo sapiens, UniProt P25929); test: Fluorescence-based counterscreen for agonists of NPY-Y2: cell-based high-throughput dose response assay for agonists of NPY-Y1.; type: functional
Neuropeptide Y receptor type 1, sequence (P25929 whole entry): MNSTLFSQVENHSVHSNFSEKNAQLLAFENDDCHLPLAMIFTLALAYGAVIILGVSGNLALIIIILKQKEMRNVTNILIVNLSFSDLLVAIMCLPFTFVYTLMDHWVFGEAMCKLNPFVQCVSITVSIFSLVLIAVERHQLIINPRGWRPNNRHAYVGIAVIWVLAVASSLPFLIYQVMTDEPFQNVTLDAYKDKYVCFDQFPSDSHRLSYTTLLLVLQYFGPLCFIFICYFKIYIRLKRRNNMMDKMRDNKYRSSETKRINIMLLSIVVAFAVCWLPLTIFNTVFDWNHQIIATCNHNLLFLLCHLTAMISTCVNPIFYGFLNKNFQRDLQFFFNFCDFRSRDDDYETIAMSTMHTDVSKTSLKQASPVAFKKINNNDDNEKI

HEK293 = test: Fluorescence-based counterscreen for potentiators or agonists of NPY-Y2: cell-based high-throughput dose response assay to identify inhibitors of cyclic nucleotide gated ion channel (CNGC) activity. In this assay, the parental HEK293 cell line transfected with a cyclic-nucleotide gated ion channel (CNGC)-based cAMP sensor is used to measure inhibition of isoproterenol-induced CNGC activity by test compound.; type: functional; details: Homo sapiens;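 also: stimulus is 1 µM isoproterenol at EC100 plus PDE inhibitor Ro 20-1724 at 25 µM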
[5] = biological target: Neuropeptide Y receptor type 2 (Homo sapiens, UniProt P49146); test: Fluorescence-based cell-based high-throughput dose response assay for agonists of NPY-Y2. [Related pubchem assays: 1703 (Screening assay (CNGC inhibitors).), 1359 (Screening assay (NPY-Y2 potentiators or agonists).), 1304 (Screening assay (NPY-Y1 potentiators or agonists).), 1710 (Screening assay (NPY-Y2 agonists).), 1791 (Summary AID.)]; type: functional
Neuropeptide Y receptor type 2, sequence (P49146 whole entry): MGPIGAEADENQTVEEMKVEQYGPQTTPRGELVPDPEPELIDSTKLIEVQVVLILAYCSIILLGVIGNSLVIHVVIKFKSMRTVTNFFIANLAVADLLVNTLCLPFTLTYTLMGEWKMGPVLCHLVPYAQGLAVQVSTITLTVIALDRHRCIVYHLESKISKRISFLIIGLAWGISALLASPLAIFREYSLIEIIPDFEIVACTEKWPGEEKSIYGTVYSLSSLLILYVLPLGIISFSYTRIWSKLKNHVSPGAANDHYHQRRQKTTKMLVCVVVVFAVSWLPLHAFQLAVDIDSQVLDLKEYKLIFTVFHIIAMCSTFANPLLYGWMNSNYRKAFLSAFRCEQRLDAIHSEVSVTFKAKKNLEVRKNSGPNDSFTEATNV

[6] = biological target: Polyadenylate-binding protein 1 (Homo sapiens, UniProt P11940); test: PABP poly(A) RNA binding inhibitors, primary screen, biochemical, fluorescence polarization, uHTS (AID 2014)
Polyadenylate-binding protein 1, sequence (P11940 whole entry): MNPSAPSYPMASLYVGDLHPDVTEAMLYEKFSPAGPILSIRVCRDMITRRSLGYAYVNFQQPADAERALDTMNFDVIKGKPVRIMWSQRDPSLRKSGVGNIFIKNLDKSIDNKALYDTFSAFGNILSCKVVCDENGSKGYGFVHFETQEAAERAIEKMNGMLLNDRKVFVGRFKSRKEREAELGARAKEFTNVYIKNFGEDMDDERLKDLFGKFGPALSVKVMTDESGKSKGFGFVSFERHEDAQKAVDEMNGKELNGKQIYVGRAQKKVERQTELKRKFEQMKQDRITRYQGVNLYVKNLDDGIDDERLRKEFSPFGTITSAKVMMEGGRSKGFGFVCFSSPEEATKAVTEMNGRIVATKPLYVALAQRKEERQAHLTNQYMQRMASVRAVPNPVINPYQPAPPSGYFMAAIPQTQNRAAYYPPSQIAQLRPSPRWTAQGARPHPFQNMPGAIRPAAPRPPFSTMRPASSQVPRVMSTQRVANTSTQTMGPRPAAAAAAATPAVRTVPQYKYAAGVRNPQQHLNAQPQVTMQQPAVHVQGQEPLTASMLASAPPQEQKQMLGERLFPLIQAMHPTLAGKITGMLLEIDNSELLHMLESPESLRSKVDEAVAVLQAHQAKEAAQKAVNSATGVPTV

[7] = biological target: Eukaryotic translation initiation factor 4H (Homo sapiens, UniProt Q15056); test: human eIF4H binding inhibitors, primary screen, translation initiation inhibitor project, biochemical, uHTS, fluorescence polarization (AID 2012)
[8] = biological target: T1, Rac GTPase-activating protein 1 (Homo sapiens, UniProt Q9H0H5); test: MgcRacGAP GTPase-activating activity inhibitors, confirmation, biochemical, ADP Hunter fluorescence, primary and confirmatory (AID 624330); type: functional
T1 sequence (Q9H0H5 whole entry): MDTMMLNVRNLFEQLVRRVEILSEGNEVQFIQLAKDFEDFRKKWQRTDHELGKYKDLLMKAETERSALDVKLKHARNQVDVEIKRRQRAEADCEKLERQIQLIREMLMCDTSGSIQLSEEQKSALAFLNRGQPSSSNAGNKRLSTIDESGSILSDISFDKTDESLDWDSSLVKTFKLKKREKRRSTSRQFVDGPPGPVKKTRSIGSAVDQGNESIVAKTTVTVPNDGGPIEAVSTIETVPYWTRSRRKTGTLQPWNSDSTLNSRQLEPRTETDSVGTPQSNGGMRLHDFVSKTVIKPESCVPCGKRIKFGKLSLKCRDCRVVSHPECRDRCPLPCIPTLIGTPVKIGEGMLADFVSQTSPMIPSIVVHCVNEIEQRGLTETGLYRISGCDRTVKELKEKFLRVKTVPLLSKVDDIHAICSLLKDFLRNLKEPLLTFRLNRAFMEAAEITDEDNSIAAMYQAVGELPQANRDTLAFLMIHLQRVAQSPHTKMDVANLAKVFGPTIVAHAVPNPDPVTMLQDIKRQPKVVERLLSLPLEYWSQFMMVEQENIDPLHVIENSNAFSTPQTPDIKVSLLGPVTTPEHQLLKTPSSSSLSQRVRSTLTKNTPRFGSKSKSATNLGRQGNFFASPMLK

**Q.** Which EC50 [1] does the source give for `CCc1nc(C)ccc1OCC(=O)N(CC)CC` here?
**A.** The EC50 was > 50 µM (active).

**Q.** Which IC50 [2] does the source give for `Sc1nnc(-c2ccco2)n1/N=C/c1c(Cl)cccc1Cl` here?
**A.** Its IC50 is 5.03 µM (active).

**Q.** And the IC50 [3]?
**A.** Its IC50 is > 100 µM (inactive).

**Q.** Which EC50 [4] does the source give for `CC(C)c1nnc(NC(=O)CCC(=O)Nc2ccc3c[nH]nc3c2)s1` here?
**A.** Its EC50 is > 35.4 µM (not active).

**Q.** And the EC50 (HEK293)?
**A.** Its EC50 is > 35.4 µM (not active).

**Q.** And the EC50 [5]?
**A.** Its EC50 is > 35.4 µM (not active).

**Q.** Which IC50 [6] does the source give for `C[N+]1=C2c3ccccc3N=CN2CC1` here?
**A.** Its IC50 is 4.47 µM (active).

**Q.** What about the IC50 [7] of the same compound?
**A.** The IC50 was > 100 µM (inactive).

**Q.** Which EC50 [1] does the source give for `Clc1ccc(Nc2nc(C3CC3)cs2)cc1` here?
**A.** Its EC50 is > 50 µM (active).

**Q.** Which results are given for `Cc1cccc(-c2nnc(S)n2/N=C/c2ccco2)c1`?
**A.** IC50 [2]: 2.1 µM (active); IC50 [8]: 89.6 µM (active); IC50 [3]: > 100 µM (inactive)

**Q.** Which results are given for `CC(Nc1ccccc1)c1cccnc1` (stereo not given)?
**A.** EC50 [4]: > 35.4 µM (not active); EC50 (HEK293): > 35.4 µM (not active); EC50 [5]: > 35.4 µM (not active)
